Assay: Biochemical Assay: Test compounds were placed in a Greiner Bio-One (Monroe, N.C.) 1536-well black solid bottom assay plate. 200 millimolar (mM) Tris HCl, pH 7.4, 100 micromolar (μM) EDTA and 0.01% TWEEN-20™, final concentration, was used as the assay buffer. The LDHA reagent was 2 nanomolar (nM) Human LDHA (Meridian Life Science, Inc., Memphis, Tenn.), final concentration, in assay buffer.

With `NS(=O)(=O)c1ccc(Cc2c(CC3CC3)nn(-c3nc(C(=O)O)cs3)c2-c2ccc(F)c(-c3cccc(F)c3)c2)cc1` the IC50 was “in the range around 29000 nM”.
In the case of `CNS(=O)(=O)c1ccc(Cc2c(-c3ccc(F)c(-c4cccc(F)c4)c3)nn(-c3nc(C(=O)O)cs3)c2CC2CC2)cc1F`, the IC50 is reported as “in the range around 550 nM”.
With `COc1cccc(-c2cc(-c3c(Cc4ccc(S(N)(=O)=O)cc4F)c(CC4CC4)nn3-c3nc(C(=O)O)cs3)ccc2F)c1` the IC50 was “in the range around 29000 nM”.
In the case of `Cc1ccc(-c2cccc(-c3c(Cc4ccc(S(N)(=O)=O)cc4F)c(C4CC4)nn3-c3nc(C(=O)O)cs3)c2)cc1`, the IC50 is reported as “in the range around 29000 nM”.
In the case of `NS(=O)(=O)c1ccc(Cc2c(Cc3ccccc3)nn(-c3nc(C(=O)O)cs3)c2-c2ccccc2)cc1`, the IC50 is reported as “in the range around 29000 nM”.
For `CCOC(=O)c1csc(-n2nc(-c3ccc(F)c(-c4cccc(F)c4)c3)c(Cc3ccc(S(N)(=O)=O)cc3F)c2CC2CC2)n1`, the IC50 was “in the range around 29000 nM”.
For `NS(=O)(=O)c1ccc(Cc2c(-c3cccc(N4CCC(F)(F)C4)c3)nn(-c3nc(C(=O)O)cs3)c2CC2CC2)cc1F`, the IC50 was “in the range around 29000 nM”.
In the case of `NS(=O)(=O)c1ccc(Cc2c(C3(C(F)(F)F)CC3)nn(-c3nc(C(=O)O)cs3)c2-c2cccc(-c3ccccc3)c2)cc1`, the IC50 is reported as “in the range around 29000 nM”.
With `NS(=O)(=O)c1ccc(Cc2c(C3CC3)nn(-c3nc(C(=O)O)cs3)c2-c2cccc(-c3cccc(F)c3)c2)c(F)c1` the IC50 was “in the range around 29000 nM”.
For `O=C(O)c1csc(-n2nc(-c3ccccc3)cc2C(F)(F)F)n1`, the IC50 was “in the range around 29000 nM”.
With `NS(=O)(=O)c1ccc(Cc2c(-c3cccc(-c4ccccc4)c3)nn(-c3nc(C(=O)O)cs3)c2CC(F)(F)F)cc1` the IC50 was “in the range around 550 nM”.
For `Cc1ccc(-c2cc(-c3c(Cc4ccc(S(N)(=O)=O)cc4F)c(CC4CC4)nn3-c3nc(C(=O)O)cs3)ccc2F)cc1`, the IC50 was “in the range around 29000 nM”.
For `Cc1ccc(-c2cc(-c3c(Cc4ccc(S(N)(=O)=O)cc4)c(CC4CC4)nn3-c3nc(C(=O)O)cs3)ccc2F)cc1`, the IC50 was “in the range around 29000 nM”.
In the case of `O=C(O)c1csc(-n2nc(-c3ccc(Cl)cc3)cc2C(F)(F)F)n1`, the IC50 is reported as “in the range around 29000 nM”.
In the case of `NS(=O)(=O)c1cccc(Cc2c(-c3ccc(F)c(C#CC4CCCC4)c3)nn(-c3nc(C(=O)O)cs3)c2CC2CC2)c1`, the IC50 is reported as “in the range around 550 nM”.
For `NS(=O)(=O)c1ccc(Cc2c(CC3CC3)nn(-c3nc(C(=O)O)cs3)c2-c2cccc(-c3ccccc3)c2)c(F)c1`, the IC50 was “in the range around 29000 nM”.
In the case of `CC#Cc1cccc(-c2nn(-c3nc(C(=O)OCC)cs3)c(CC3CC3)c2Cc2ccc(S(N)(=O)=O)c(F)c2)c1`, the IC50 is reported as “in the range around 29000 nM”.
With `CC#Cc1cc(-c2nn(-c3nc(C(=O)OCC)cs3)c(CC3CC3)c2Cc2ccc(S(N)(=O)=O)c(F)c2)ccc1F` the IC50 was “in the range around 29000 nM”.
With `Cc1ccc(-c2cc(-c3c(Cc4ccc(S(N)(=O)=O)c(F)c4)c(CC4CC4)nn3-c3nc(C(=O)O)cs3)ccc2F)cc1` the IC50 was “in the range around 29000 nM”.
With `COc1cc(-c2c(Cc3ccc(S(N)(=O)=O)cc3)c(CC3CC3)nn2-c2nc(C(=O)O)cs2)ccc1F` the IC50 was “in the range around 29000 nM”.
With `NS(=O)(=O)c1ccc(Cc2c(-c3cccc(-c4ccccc4)c3)nn(-c3nc(C(=O)O)cs3)c2C2(C(F)(F)F)CC2)cc1` the IC50 was “in the range around 29000 nM”.

`Cc1ccc(-c2cc(-c3nn(-c4nc(C(=O)O)cs4)c(CC4CC4)c3Cc3ccc(S(N)(=O)=O)c(F)c3)ccc2F)o1` and `Cc1csc(-c2cc(-c3nn(-c4nc(C(=O)O)cs4)c(CC4CC4)c3Cc3ccc(S(N)(=O)=O)c(F)c3)ccc2F)c1` cannot be ordered by IC50: under 100 nM for the first, under 100 nM for the second.

First: CCOC(=O)c1csc(-n2nc(-c3ccccc3)c(Cc3ccc(S(N)(=O)=O)cc3)c2C2CC2)n1
Second: Cc1c(Cc2ccc(S(N)(=O)=O)cc2)c(-c2ccccc2)nn1-c1nc(C(=O)O)cs1
The IC50 of the first is higher: over 57000 nM for the first, under 100 nM for the second.

`NS(=O)(=O)c1ccc(Cc2c(-c3cccc(-c4ccccc4)c3)nn(-c3nc(C(=O)O)cs3)c2CC2CC2)cc1F` and `Cc1ccc(-c2cccc(-c3nn(-c4nc(C(=O)O)cs4)c(CC4CC4)c3Cc3ccc(S(N)(=O)=O)c(F)c3)c2)cc1` cannot be ordered by IC50: under 100 nM for the first, under 100 nM for the second.

`C/C=C(\C)c1cc(-c2nn(-c3nc(C(=O)O)cs3)c(CC3CC3)c2Cc2ccc(S(N)(=O)=O)c(F)c2)ccc1F` and `CCC(C)(C)c1cc(-c2nn(-c3nc(C(=O)O)cs3)c(CC3CC3)c2Cc2ccc(S(N)(=O)=O)c(F)c2)ccc1F` cannot be ordered by IC50: under 100 nM for the first, under 100 nM for the second.

Compared with `CCOC(=O)c1csc(-n2nc(-c3ccc(F)c(-c4ccc(C)s4)c3)c(Cc3ccc(S(N)(=O)=O)c(F)c3)c2CC2CC2)n1`, `NS(=O)(=O)c1ccc(Cc2c(-c3ccc(F)c(-c4cccs4)c3)nn(-c3nc(C(=O)O)cs3)c2CC2CC2)cc1F` is lower in IC50: over 57000 nM for the first, under 100 nM for the second.

`NS(=O)(=O)c1ccc(Cc2c(-c3ccc(F)c(C(F)(F)F)c3)nn(-c3nc(C(=O)O)cs3)c2CC2CC2)cc1F` and `N#CC#Cc1cc(-c2nn(-c3nc(C(=O)O)cs3)c(CC3CC3)c2Cc2ccc(S(N)(=O)=O)c(F)c2)ccc1F` cannot be ordered by IC50: under 100 nM for the first, under 100 nM for the second.

`NS(=O)(=O)c1ccc(Cc2c(-c3cccc(-c4cccc(F)c4)c3)nn(-c3nc(C(=O)O)cs3)c2C2CC2)c(F)c1` and `Cc1ccc(-c2cccc(-c3nn(-c4nc(C(=O)O)cs4)c(C4CC4)c3Cc3ccc(S(N)(=O)=O)cc3F)c2)cc1` cannot be ordered by IC50: under 100 nM for the first, under 100 nM for the second.

`NC(=O)c1csc(-n2nc(-c3cccc(-c4ccccc4)c3)c(Cc3ccc(S(N)(=O)=O)cc3)c2O)n1` and `O=C(O)c1ccc(Cc2c(-c3cccc(-c4ccccc4)c3)nn(-c3nc(C(=O)O)cs3)c2O)cc1` cannot be ordered by IC50: over 57000 nM for the first, over 57000 nM for the second.

`NS(=O)(=O)c1ccc(Cc2c(-c3ccc(F)c(-c4ccccc4)c3)nn(-c3nc(C(=O)O)cs3)c2CC2CC2)cc1` and `NS(=O)(=O)c1ccc(Cc2c(-c3cccc(OCc4ccccc4)c3)nn(-c3nc(C(=O)O)cs3)c2CC2CC2)cc1` cannot be ordered by IC50: under 100 nM for the first, under 100 nM for the second.

`NS(=O)(=O)c1ccc(Cc2c(-c3ccc(F)c(-c4ccc(F)cc4)c3)nn(-c3nc(C(=O)O)cs3)c2C2CC2)c(F)c1` and `NS(=O)(=O)c1ccc(Cc2c(-c3ccc(F)c(-c4ccc(F)cc4)c3)nn(-c3nc(C(=O)O)cs3)c2CC2CC2)c(F)c1` cannot be ordered by IC50: under 100 nM for the first, under 100 nM for the second.

`NS(=O)(=O)c1ccc(Cc2c(-c3cccc(OC4CCCC4)c3)nn(-c3nc(C(=O)O)cs3)c2CC2CC2)cc1` and `NS(=O)(=O)c1ccc(Cc2c(-c3cccc(C4CCCC4)c3)nn(-c3nc(C(=O)O)cs3)c2CC2CC2)cc1` cannot be ordered by IC50: under 100 nM for the first, under 100 nM for the second.

First: O=C(O)c1csc(-n2nc(-c3cccc(-c4ccccc4F)c3)cc2O)n1
Second: NS(=O)(=O)c1ccc(Cc2cn(-c3nc(C(=O)O)cs3)nc2-c2ccccc2)cc1
The IC50 of the first is higher: over 57000 nM for the first, under 100 nM for the second. The second is the more potent here.

`CCOC(=O)c1csc(-n2nc(-c3ccc(F)c(C#CC4CCCC4)c3)c(Cc3ccc(S(N)(=O)=O)c(F)c3)c2CC2CC2)n1` and `Cc1oc(=O)oc1COC(=O)c1csc(-n2nc(-c3ccc(F)c(C#CC4CCCC4)c3)c(Cc3ccc(S(N)(=O)=O)c(F)c3)c2CC2CC2)n1` cannot be ordered by IC50: over 57000 nM for the first, over 57000 nM for the second.

`Cc1ccc(-c2cc(-c3c(Cc4ccc(S(N)(=O)=O)cc4F)c(CC4CC4)nn3-c3nc(C(=O)O)cs3)ccc2F)s1` and `Cc1csc(-c2cc(-c3c(Cc4ccc(S(N)(=O)=O)cc4F)c(CC4CC4)nn3-c3nc(C(=O)O)cs3)ccc2F)c1` cannot be ordered by IC50: over 57000 nM for the first, over 57000 nM for the second.

`NS(=O)(=O)c1ccc(Cc2c(-c3ccc(F)c(C4=CCN(C(=O)C5CC5)CC4)c3)nn(-c3nc(C(=O)O)cs3)c2CC2CC2)cc1F` and `NS(=O)(=O)c1ccc(Cc2c(-c3ccc(F)c(C4CCCCC4)c3)nn(-c3nc(C(=O)O)cs3)c2CC2CC2)cc1F` cannot be ordered by IC50: under 100 nM for the first, under 100 nM for the second.

`Cc1ccc(-c2cccc(-c3nn(-c4nc(C(=O)O)cs4)c(C(F)(F)F)c3Cc3ccc(S(N)(=O)=O)cc3)c2)cc1` and `Cc1ccc(-c2cccc(-c3nn(-c4nc(C(=O)O)cs4)c(C4CC4)c3Cc3ccc(S(N)(=O)=O)c(F)c3)c2)cc1` cannot be ordered by IC50: under 100 nM for the first, under 100 nM for the second.

`NS(=O)(=O)c1ccc(Cc2c(-c3ccc(F)c(C#CC4CCCC4)c3)nn(-c3nc(C(=O)O)cs3)c2C2CC2)cc1F` and `NS(=O)(=O)c1ccc(Cc2c(-c3ccc(F)c(C#CC4(O)CCCC4)c3)nn(-c3nc(C(=O)O)cs3)c2CC2CC2)cc1F` cannot be ordered by IC50: under 100 nM for the first, under 100 nM for the second.

First: NS(=O)(=O)c1ccc(NCc2cn(-c3nc(C(=O)O)cs3)nc2-c2ccccc2)cc1
Second: COc1cccc(-c2cc(-c3nn(-c4nc(C(=O)O)cs4)c(C4CC4)c3Cc3ccc(S(N)(=O)=O)cc3F)ccc2F)c1
The IC50 of the first is higher: over 57000 nM for the first, under 100 nM for the second.

`CC(C)(C)C#Cc1cc(-c2nn(-c3nc(C(=O)O)cs3)c(CC3CC3)c2Cc2ccc(S(N)(=O)=O)c(F)c2)ccc1F` and `CC(C)C#Cc1cc(-c2nn(-c3nc(C(=O)O)cs3)c(CC3CC3)c2Cc2ccc(S(N)(=O)=O)c(F)c2)ccc1F` cannot be ordered by IC50: under 100 nM for the first, under 100 nM for the second.

`Cc1csc(-c2cc(-c3c(Cc4ccc(S(N)(=O)=O)c(F)c4)c(CC4CC4)nn3-c3nc(C(=O)O)cs3)ccc2F)c1` and `Cn1cc(-c2cc(-c3c(Cc4ccc(S(N)(=O)=O)c(F)c4)c(CC4CC4)nn3-c3nc(C(=O)O)cs3)ccc2F)cn1` cannot be ordered by IC50: over 57000 nM for the first, over 57000 nM for the second.

`CC(c1ccccc1)c1cc(-c2nn(-c3nc(C(=O)O)cs3)c(CC3CC3)c2Cc2ccc(S(N)(=O)=O)c(F)c2)ccc1F` (stereo not given) and `Cn1cncc1C#Cc1cc(-c2nn(-c3nc(C(=O)O)cs3)c(CC3CC3)c2Cc2ccc(S(N)(=O)=O)c(F)c2)ccc1F` cannot be ordered by IC50: under 100 nM for the first, under 100 nM for the second.

`COCC#Cc1cc(-c2nn(-c3nc(C(=O)O)cs3)c(CC3CC3)c2Cc2ccc(S(N)(=O)=O)c(F)c2)ccc1F` and `NS(=O)(=O)c1ccc(Cc2c(-c3ccc(F)c(C#CCN4CCCC4)c3)nn(-c3nc(C(=O)O)cs3)c2CC2CC2)cc1F` cannot be ordered by IC50: under 100 nM for the first, under 100 nM for the second.

`NS(=O)(=O)c1ccc(Cc2c(-c3ccc(F)c(C4CC4)c3)nn(-c3nc(C(=O)O)cs3)c2CC2CC2)cc1Cl` and `CC#Cc1cccc(-c2nn(-c3nc(C(=O)O)cs3)c(CC3CC3)c2Cc2ccc(S(N)(=O)=O)c(F)c2)c1` cannot be ordered by IC50: under 100 nM for the first, under 100 nM for the second.

`NS(=O)(=O)c1ccc(Cc2c(-c3cccc(N4CCCC(C(F)(F)F)C4)c3)nn(-c3nc(C(=O)O)cs3)c2CC2CC2)cc1F` (stereo not given) and `NS(=O)(=O)c1ccc(Cc2c(-c3cccc(N4CCC(C(F)(F)F)CC4)c3)nn(-c3nc(C(=O)O)cs3)c2CC2CC2)cc1F` cannot be ordered by IC50: under 100 nM for the first, under 100 nM for the second.

With `Cc1ccc(-c2cc(-c3nn(-c4nc(C(=O)O)cs4)c(C4CC4)c3Cc3ccc(S(N)(=O)=O)c(F)c3)ccc2F)cc1` the IC50 was under 100 nM.
